Test results taken from patent US8232288B2, “Substituted benzimidazoles, benzothiazoles and benzoxazoles” (Gruenenthal GmbH, priority 2009, dated 2012).

Key:
[1] = molecular target: T1, human B1R receptor (hB1R) (Homo sapiens, UniProt P46663); test: Functional investigation on the bradykinin receptor 1 (B1R), FLIPR Ca2+ assay, hB1R cells; format: cell-based
T1 construct: expressed in transfected cells; host or cells: CHO K1 cells
T1 sequence (P46663 1-353): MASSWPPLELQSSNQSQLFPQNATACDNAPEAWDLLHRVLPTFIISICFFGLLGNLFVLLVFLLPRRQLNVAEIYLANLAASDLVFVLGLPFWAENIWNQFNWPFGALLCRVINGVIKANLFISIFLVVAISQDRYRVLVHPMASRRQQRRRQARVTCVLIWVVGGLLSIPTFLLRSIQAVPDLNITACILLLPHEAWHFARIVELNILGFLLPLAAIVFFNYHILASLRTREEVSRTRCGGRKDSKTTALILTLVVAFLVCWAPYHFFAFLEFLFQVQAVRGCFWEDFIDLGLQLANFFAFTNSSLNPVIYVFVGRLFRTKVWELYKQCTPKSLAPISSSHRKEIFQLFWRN
Outline: (§1)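 Stably transfected CHO K1 cells expressing human or rat B1R were loaded with Fluo-4, and Ca2+ fluorescence was read on a FLIPR. Compound (10 μM) was added first to measure activation. After 10–20 min, agonist at EC80 was added (Lys-Des-Arg9-bradykinin for hB1R, Des-Arg9-bradykinin for rB1R) to give % inhibition. IC50 values came from concentration series.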

[2] = molecular target: T2, B1R receptor of the rat (rB1R) (Rattus norvegicus, UniProt P97583); test: Functional investigation on the bradykinin receptor 1 (B1R), FLIPR Ca2+ assay, rB1R cells; format: cell-based
T2 construct: expressed in transfected cells; host or cells: CHO K1 cells
T2 sequence (P97583 1-337): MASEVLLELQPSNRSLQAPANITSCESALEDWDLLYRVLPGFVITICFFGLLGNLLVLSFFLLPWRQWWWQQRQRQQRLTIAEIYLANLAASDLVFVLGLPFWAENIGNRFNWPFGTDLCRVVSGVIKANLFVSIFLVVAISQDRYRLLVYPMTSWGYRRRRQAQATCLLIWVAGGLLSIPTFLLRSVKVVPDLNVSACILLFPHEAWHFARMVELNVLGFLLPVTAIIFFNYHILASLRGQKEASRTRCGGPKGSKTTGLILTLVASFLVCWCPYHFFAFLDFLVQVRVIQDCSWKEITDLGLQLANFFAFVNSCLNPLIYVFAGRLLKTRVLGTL
Outline: as §1

Compound	inhibition at 10 µM [1] [%]	inhibition at 10 µM [2] [%]
COc1cc(C)c(S(=O)(=O)N(C)Cc2nc3cccc(C(=O)N4CCC5(CC4)CCN(c4ccncc4)CC5)c3[nH]2)c(C)c1 [I_CC-03, 4-methoxy-N,2,6-trimethyl-N-[[7-(3-pyridin-4-yl-3,9-diazaspiro[5.5]undecane-9-carbonyl)-1H-benzoimidazol-2-yl]-methyl]-benzenesulfonic acid amide]	100	100
CN(Cc1nc2cccc(C(=O)N3CCC4(CC3)CCN(c3ccncc3)CC4)c2[nH]1)C(=O)c1ccc(Cl)s1 [I_16, 5-chloro-N-methyl-N-[[7-(9-pyridin-4-yl-3,9-diazaspiro[5.5]undecane-3-carbonyl)-1H-benzoimidazol-2-yl]-methyl]-thiophene-2-carboxylic acid amide]	91	105
COc1cc(C)c(S(=O)(=O)N(C)C(C)c2nc3cccc(C(=O)N4CCC5(CC4)CCN(S(=O)(=O)c4ccccc4C#N)CC5)c3[nH]2)c(C)c1 (centres unmarked) [I_CC-59, N-[1-[7-[9-[(2-Cyano-phenyl)sulfonyl]-3,9-diazaspiro[5.5]undecane-3-carbonyl]-1H-benzoimidazol-2-yl]-ethyl]-4-methoxy-N,2,6-trimethyl-benzenesulfonic acid amide]	20	103
COc1cc(C)c(S(=O)(=O)N(C)c2nc3cccc(C(=O)N4CCC5(CC4)C(=O)NCC5c4ccncc4)c3n2C)c(C)c1 (centres unmarked) [I_CC-16, 4-methoxy-N,2,6-trimethyl-N-[1-methyl-7-(4-oxo-1-pyridin-4-yl-3,8-diazaspiro[4.5]decane-8-carbonyl)-1H-benzoimidazol-2-yl]-benzenesulfonic acid amide]	72	82
COc1cc(C)c(S(=O)(=O)N(C)C(C)c2nc3cccc(C(=O)N4CCC5(CCN(C(=O)c6cccnc6SC)CC5)CC4)c3[nH]2)c(C)c1 (centres unmarked) [I_CC-48, 4-Methoxy-N,2,6-trimethyl-N-[1-[7-[9-(2-methylsulfanyl-pyridine-3-carbonyl)-3,9-diazaspiro[5.5]undecane-3-carbonyl]-1H-benzoimidazol-2-yl]-ethyl]-benzenesulfonic acid amide]	61	89

Other lines, results leading:

inhibition at 10 µM [1] [%]	inhibition at 10 µM [2] [%]	Compound
54	80	COc1cc(C)c(S(=O)(=O)N(C)c2nc3c(C(=O)N4CCC5(CC4)CCN(c4ccncc4)CC5)cccc3s2)c(C)c1 [I_CC-19, 4-methoxy-N,2,6-trimethyl-N-[4-(3-pyridin-4-yl-3,9-diazaspiro[5.5]undecane-9-carbonyl)-benzothiazol-2-yl]-benzenesulfonic acid amide]
98	96	CN(Cc1nc2cccc(C(=O)N3CCC4(CC3)CCN(c3ccncc3)CC4)c2[nH]1)S(=O)(=O)c1cccc2ccccc12 [I_07, N-methyl-N-[[7-(9-pyridin-4-yl-3,9-diazaspiro[5.5]undecane-3-carbonyl)-1H-benzoimidazol-2-yl]-methyl]-naphthalene-1-sulfonic acid amide]
30	93	CN(Cc1nc2cccc(C(=O)N3CCC4(CC3)CCN(c3ccncc3)CC4)c2[nH]1)C(=O)c1sccc1Cl [I_CC-05, 3-chloro-N-methyl-N-[[7-(3-pyridin-4-yl-3,9-diazaspiro[5.5]undecane-9-carbonyl)-1H-benzoimidazol-2-yl]-methyl]-thiophene-2-carboxylic acid amide]
58	103	COc1cc(C)c(S(=O)(=O)N(C)C(C)c2nc3cccc(C(=O)N4CCC5(CCN(Cc6c[nH]cn6)CC5)CC4)c3[nH]2)c(C)c1 (centres unmarked) [I_CC-25, N-[1-[7-[9-(1H-Imidazol-4-yl-methyl)-3,9-diazaspiro[5.5]undecane-3-carbonyl]-1H-benzoimidazol-2-yl]-ethyl]-4-methoxy-N,2,6-trimethyl-benzenesulfonic acid amide]
100	99	CN(Cc1nc2cccc(C(=O)N3CCC4(CC3)CCN(c3ccncc3)CC4)c2[nH]1)S(=O)(=O)c1ccccc1C(F)(F)F [I_08, N-methyl-N-[[7-(9-pyridin-4-yl-3,9-diazaspiro[5.5]undecane-3-carbonyl)-1H-benzoimidazol-2-yl]-methyl]-2-(trifluoromethyl)-benzenesulfonic acid amide]
